Measurements: patent publication US20210309686A1, “QUATERNARY AMMONIUM SALTS OF NICOTINIC ACID AND NICOTINAMIDE MONONUCLOETIDES AND RIBOSIDES AS ANTI-AGING AGENTS” (Jumpstart Fertility Pty Ltd, priority 2018, published 2021)

Test system: COV434 cells
Experiment: NAD Cell Assays (NAD cycling method)
Type: cell-based
Conditions: COV434 cells treated at 200 uM for 4 hr; NAD normalized to protein; salt compared mole per mole with its parent counterpart
Description: NAD levels were assayed based on the NAD cycling method of Zhu and Rand, PLoS One (2012), herein incorporated by reference. COV434 cells were maintained in 6 well plates and treated with the indicated compounds at a concentration of 200 uM for 4 hr. Media was removed, plates were washed in cold PBS and cells were scraped down in NAD extraction buffer containing 10 mM nicotinamide, 50 mM Tris HCl, 0.1% Triton X-100. Cells were homogenized by sonication for 5 seconds, and samples were centrifuged at 7,000 g for 5 min at 4 degrees. Aliquots were taken for later protein assay, and samples were then passed through 10 kDa amicon filters at 14,000 g, 30 min at 4 degrees to remove proteins from the sample. Each sample was measured in technical triplicate, with 25 μL sample added to 100 μL ADH cycling mix (0.2 mg/ml alcohol dehydrogenase enzyme, 2% ethanol, 100 mM Tris pH 8.5). Samples were allowed to cycle for 10 min at room temperature, followed by 50 μL addition of an MTT/PMS solution (0.1 mM phenazine methosulfate, 0.8 mM 3-(4,5-Dimethylthiazol-2-yl)-2,5-diphenyltetrazolium bromide), 100 mM Tris-HCl pH 8.5). Plates were then incubated for 15 min and absorbance was measured at 570 nm. NAD concentrations were extrapolated from a standard curve, and normalized to protein concentrations determined by BCA protein assay.
The fold increase is obtained through a direct comparison on a mole per mole between the compared salt and its parent counterpart.

SMILES | Fold Increase of NAD Adjusted by Molecular Weight
O=C([O-])c1ccc[n+]([C@@H]2O[C@H](COP(=O)(O)O)[C@@H](O)[C@H]2O)c1 [I-002, (R)-3-Carboxy-2-hydroxy-N,N,N-trimethylpropan-1-aminium 1-((2R,3R,4S,5R)-5-(((hydrogenphosphonato)oxy)methyl)-3,4-dihydroxytetrahydrofuran-2-yl)pyridin-1-ium-3-carboxylate] | 1.47
O=C([O-])c1ccc[n+]([C@@H]2O[C@H](COP(=O)(O)O)[C@@H](O)[C@H]2O)c1 [I-003, 1-Carboxy-N,N,N-trimethylmethanaminium 1-((2R,3R,4S,5R)-5-(((hydrogenphosphonato)oxy)methyl)-3,4-dihydroxytetrahydrofuran-2-yl)pyridin-1-ium-3-carboxylate] | 1.51
NC(=O)c1ccc[n+]([C@@H]2O[C@H](COP(=O)([O-])O)[C@@H](O)[C@H]2O)c1 [I-005, 1-Carboxy-N,N,N-trimethylmethanaminium ((2R,3S,4R,5R)-5-(3-carbamoylpyridin-1-ium-1-yl)-3,4-dihydroxytetrahydrofuran-2-yl)methyl phosphate] | 1.35
O=C([O-])c1ccc[n+]([C@@H]2O[C@H](COP(=O)(O)O)[C@@H](O)[C@H]2O)c1 [I-006, (R)-3-Carboxy-2-hydroxy-N,N,N-trimethylpropan-1-aminium 1-((2R,3R,4S,5R)-3,4-dihydroxy-5-((phosphonatooxy)methyl)tetrahydrofuran-2-yl)pyridin-1-ium-3-carboxylate] | 1.64
O=C([O-])c1ccc[n+]([C@@H]2O[C@H](COP(=O)(O)O)[C@@H](O)[C@H]2O)c1 [I-007, 1-Carboxy-N,N,N-trimethylmethanaminium 1-((2R,3R,4S,5R)-3,4-dihydroxy-5-((phosphonatooxy)methyl)tetrahydrofuran-2-yl)pyridin-1-ium-3-carboxylate] | 1.92
